{
  "source": "patent US20100029479A1",
  "about": "“PESTICIDAL COMBINATIONS” (SYNGENTA CROP PROTECTION, INC., priority 2006, published 2010)",
  "key": {"[1]": {"system": "Tilletia caries", "test": "Tilletia caries, number of ears infected (seed treatment, field plots)", "type": "in vivo", "settings": "Winter wheat/caphorn, Antraquinone 50, combination 50 + 2 + 5 + 3 gai/100 kg seed"}, "[2]": {"system": "Ustilago", "test": "Ustilago, % pest incidence (seed treatment, field plots)", "type": "in vivo", "settings": "Antraquinone 50, combination 50 + 2 + 5 + 3 gai/100 kg seed"}},
  "data": [
    {"smiles": "O=C1c2ccccc2C(=O)c2ccccc21", "note": "[Antraquinone]", "values": [
      {"measurement": "Number of Ears Infected", "setting": "[1]; Trial 1, plot 15 m^2, 253 DAP", "value": "14.3 (a)"},
      {"measurement": "Number of Ears Infected", "setting": "[1]; Trial 2, plot 14.25 m^2, 220 DAP", "value": "232.3 (a)"},
      {"measurement": "Number of Ears Infected", "setting": "[1]; Trial 3, plot 15 m^2, 212 DAP", "value": "84.3 (a)"},
      {"measurement": "Number of Ears Infected", "setting": "[1]; Trial 4, plot 12 m^2, 192 DAP", "value": "56 (a)"},
      {"measurement": "% Pest Incidence", "setting": "[2]; Trial 1, Winter barley var LL09OH05, plot 15 m^2, 210 DAP", "value": "18.1 (a) %"},
      {"measurement": "% Pest Incidence", "setting": "[2]; Trial 2, Winter barley var LL05OH05, plot 14.4 m^2, 205 DAP", "value": "5.6 (a) %"},
      {"measurement": "% Pest Incidence", "setting": "[2]; Trial 3, Winter barley, plot 14.4 m^2, 161 DAP", "value": "22.2 (a) %"}
    ]}
  ]
}
